Assay results published in ChEMBL document CHEMBL1156448, “Identification of an efficacy switch region in the ghrelin receptor responsible for interchange between agonism and inverse agonism” (J Biol Chem, 2007).

How the values were obtained:
[1] = target: T1, Growth hormone secretagogue receptor type 1 (Homo sapiens, UniProt Q92847); assay: Inverse agonist activity at human ghrelin receptor expressed in african green monkey COS7 cells assessed as constitutively stimulated inositol phosphate accumulation; assay type: functional, cell-based, COS-7
T1 sequence (Q92847 whole entry): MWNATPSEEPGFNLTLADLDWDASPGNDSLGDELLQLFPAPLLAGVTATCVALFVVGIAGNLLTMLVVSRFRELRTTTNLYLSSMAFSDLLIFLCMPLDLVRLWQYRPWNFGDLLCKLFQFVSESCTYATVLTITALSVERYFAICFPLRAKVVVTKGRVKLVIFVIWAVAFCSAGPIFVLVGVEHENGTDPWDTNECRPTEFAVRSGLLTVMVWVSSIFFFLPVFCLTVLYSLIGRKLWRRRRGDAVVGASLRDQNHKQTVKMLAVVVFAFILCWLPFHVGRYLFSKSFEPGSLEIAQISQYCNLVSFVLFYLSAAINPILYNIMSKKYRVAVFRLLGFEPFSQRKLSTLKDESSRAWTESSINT

[2] = target: T1, Growth hormone secretagogue receptor type 1; assay: Displacement of [35S]MK677 from human ghrelin receptor expressed in african green monkey COS7 cells; assay type: cell-based, COS-7

Row | Structure (SMILES) | IC50 [1] [nM] | IC50 [2] [nM]
1 | CC(C)C[C@H](NC(=O)[C@H](CC(C)C)NC(=O)[C@@H](Cc1c[nH]c2ccccc12)NC(=O)[C@H](Cc1ccccc1)NC(=O)[C@@H](Cc1c[nH]c2ccccc12)NC(=O)[C@@H](CCCNC(=N)N)NC(=O)[C@H]1CCCN1C(=O)[C@@H](N)CC(=O)O)C(N)=O | 112 | 210
2 | CC(C)C[C@H](NC(=O)[C@H](CC(C)C)NC(=O)[C@@H](Cc1c[nH]c2ccccc12)NC(=O)[C@H](Cc1ccccc1)NC(=O)[C@H](N)Cc1c[nH]c2ccccc12)C(N)=O | > 1000 | 530
3 | CC(C)C[C@H](NC(=O)[C@H](CC(C)C)NC(=O)[C@@H](Cc1c[nH]c2ccccc12)NC(=O)[C@H](Cc1ccccc1)NC(=O)[C@@H](Cc1c[nH]c2ccccc12)NC(=O)[C@@H](N)CCC(N)=O)C(N)=O | 990 | 120
4 | CC(C)C[C@H](NC(=O)[C@H](CC(C)C)NC(=O)[C@@H](Cc1c[nH]c2ccccc12)NC(=O)[C@H](Cc1ccccc1)NC(=O)[C@@H](Cc1c[nH]c2ccccc12)NC(=O)[C@@H](N)Cc1cnc[nH]1)C(N)=O | 68 | 58
5 | NC(=O)CNC(=O)CNC(=O)[C@@H](Cc1c[nH]c2ccccc12)NC(=O)[C@H](Cc1ccccc1)NC(=O)[C@H](N)Cc1c[nH]c2ccccc12 | 159 | 540
